Laboratory results from publication PMC6428052 (Journal of medicinal chemistry, 2018).

Assays:
hP2Y14R = biological target: T1, hP2Y14R (Homo sapiens, UniProt Q15391); type: binding; settings: for fold less potent than 7 in P2Y14R binding: primary amino sulfonamides with two and four methylenes vs three
T1 sequence (Q15391 1-338): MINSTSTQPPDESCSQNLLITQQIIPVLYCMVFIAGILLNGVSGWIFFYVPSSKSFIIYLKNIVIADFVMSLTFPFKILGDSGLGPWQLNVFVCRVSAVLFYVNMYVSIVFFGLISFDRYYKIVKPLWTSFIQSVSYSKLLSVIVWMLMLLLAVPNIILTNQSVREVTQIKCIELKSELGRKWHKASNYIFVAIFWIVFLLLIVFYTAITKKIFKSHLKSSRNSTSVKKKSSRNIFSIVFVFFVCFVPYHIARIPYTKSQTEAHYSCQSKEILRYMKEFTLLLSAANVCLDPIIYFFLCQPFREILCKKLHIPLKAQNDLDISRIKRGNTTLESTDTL

[1] = system: 45 receptors, transporters and ion channels; assay: PDSP comprehensive off-target screen; type: binding
Plasma stability = settings: at 120 min; plasma of three species: human, rat and mouse
CACO-2 cell = CACO-2 cell permeability; settings: CACO-2 cells
[2] = Stability in simulated gastric and intestinal fluids; settings: after 240 min
[3] = In vivo pharmacokinetics in rat; settings: male Sprague Dawley rat, oral administration 1–10 mg/kg
H3 = H3 (Homo sapiens, UniProt Q9Y5N1); assay: PDSP off-target binding; settings: read-out: Ki, H3
H3, sequence (Q9Y5N1 whole entry): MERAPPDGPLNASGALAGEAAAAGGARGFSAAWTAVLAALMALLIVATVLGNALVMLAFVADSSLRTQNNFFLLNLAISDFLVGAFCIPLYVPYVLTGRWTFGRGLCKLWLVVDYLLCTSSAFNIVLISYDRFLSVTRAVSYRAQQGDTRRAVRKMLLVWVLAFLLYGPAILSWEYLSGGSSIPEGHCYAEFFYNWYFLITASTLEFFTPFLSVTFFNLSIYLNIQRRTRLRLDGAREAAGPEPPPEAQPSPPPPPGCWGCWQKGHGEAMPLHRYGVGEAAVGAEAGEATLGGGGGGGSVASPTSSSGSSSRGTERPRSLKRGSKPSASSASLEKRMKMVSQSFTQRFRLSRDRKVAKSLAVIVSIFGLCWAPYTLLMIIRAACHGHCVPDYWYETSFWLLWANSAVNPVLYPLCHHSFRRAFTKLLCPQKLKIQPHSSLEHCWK

5HT2B = 5HT2B (Homo sapiens, UniProt P41595); assay: PDSP off-target binding; settings: read-out: Ki, 5HT2B
5HT2B, sequence (P41595 whole entry, species assumed): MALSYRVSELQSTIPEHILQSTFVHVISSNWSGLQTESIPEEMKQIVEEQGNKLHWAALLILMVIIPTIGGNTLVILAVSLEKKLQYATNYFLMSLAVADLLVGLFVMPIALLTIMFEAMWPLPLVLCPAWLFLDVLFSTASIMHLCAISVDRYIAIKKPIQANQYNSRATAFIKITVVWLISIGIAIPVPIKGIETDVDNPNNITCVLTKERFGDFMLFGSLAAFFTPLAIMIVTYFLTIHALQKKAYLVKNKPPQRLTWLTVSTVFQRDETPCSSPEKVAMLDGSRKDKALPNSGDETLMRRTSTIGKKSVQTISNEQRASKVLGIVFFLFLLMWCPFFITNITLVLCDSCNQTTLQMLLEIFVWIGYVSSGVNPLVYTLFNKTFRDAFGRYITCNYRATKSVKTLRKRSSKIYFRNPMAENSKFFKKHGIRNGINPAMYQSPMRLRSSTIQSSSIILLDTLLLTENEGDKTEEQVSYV

[4] = carboxylate replaced by tetrazole

## CC(C)(C)OC(=O)N1CCN(Cc2ccc(-c3cc(C(=O)O)cc(-n4cc(-c5ccc(C(F)(F)F)cc5)nn4)c3)s2)CC1 [compound 17, 3-(5-((4-(tert-Butoxycarbonyl)piperazin-1-yl)methyl)thiophen-2-yl)-5-(4-(4-(trifluoromethyl)phenyl)-1H-1,2,3-triazol-1-yl)benzoic acid]
hP2Y14R; Boc derivative vs free amine
  fold weaker than methylpiperazine 18: 34 fold

## CCN(CC)CC.NS(=O)(=O)c1ccc(-c2cc(C(=O)O)cc(-n3cc(-c4ccc(C(F)(F)F)cc4)nn3)c2)cc1 [compound 16, 4'-Sulfamoyl-5-(4-(4-(trifluoromethyl)phenyl)-1H-1,2,3-triazol-1-yl)-[1,1'-biphenyl]-3-carboxylic acid]
hP2Y14R
  fold more potent than thienyl sulfonamide 13: 10 fold

## NCCNS(=O)(=O)c1ccc(-c2cc(C(=O)O)cc(-n3cc(-c4ccc(C(F)(F)F)cc4)nn3)c2)s1 [compound 5, 3-(5-(N-(2-Aminoethyl)sulfamoyl)thiophen-2-yl)-5-(4-(4-(trifluoromethyl)phenyl)-1H-1,2,3-triazol-1-yl)benzoic acid]
hP2Y14R
  fold less potent than 7 in P2Y14R binding: 3 fold

## NCCCNC(=O)c1ccc(-c2cc(C(=O)O)cc(-n3cc(-c4ccc(C(F)(F)F)cc4)nn3)c2)s1 [compound 20, 3-(5-((3-Aminopropyl)carbamoyl)thiophen-2-yl)-5-(4-(4-(trifluoromethyl)phenyl)-1H-1,2,3-triazol-1-yl)benzoic acid]
[1]
  Off-target interactions in the comprehensive PDSP screen: did not display extensive off-target interactions with biogenic amine receptors

## CCN(CC)CC.NC(=O)c1ccc(-c2cc(C(=O)O)cc(-n3cc(-c4ccc(C(F)(F)F)cc4)nn3)c2)o1 [compound 24, 3-(5-Carbamoylfuran-2-yl)-5-(4-(4-(trifluoromethyl)phenyl)-1H-1,2,3-triazol-1-yl)benzoic acid]
hP2Y14R
  fold less potent than carboxamide 30: 10 fold

## FC(F)(F)c1ccc(-c2cn(-c3cc(-c4ccc(C5CCNCC5)cc4)cc(-c4nnn[nH]4)c3)nn2)cc1 [compound 35, 4-(3'-(1H-Tetrazol-5-yl)-5'-(4-(4-(trifluoromethyl)phenyl)-1H-1,2,3-triazol-1-yl)-[1,1'-biphenyl]-4-yl)piperidine]
hP2Y14R; [4]
  fold reduction of affinity relative to 2a: 30 fold

## O=C(O)c1cc(-c2ccc(C(=O)N3CCNCC3)s2)cc(-n2cc(-c3ccc(C(F)(F)F)cc3)nn2)c1 [compound 22, 3-(5-(Piperazine-1-carbonyl)thiophen-2-yl)-5-(4-(4-(trifluoromethyl)phenyl)-1H-1,2,3-triazol-1-yl)benzoic acid]
hP2Y14R; cyclic amines
  fold less potent than thienyl sulfonamide 12: 2 fold

## NCCCNC(=O)c1ccc(-c2cc(-c3nnn[nH]3)cc(-n3cc(-c4ccc(C(F)(F)F)cc4)nn3)c2)s1 [compound 36a, 5-(3-(1#-Tetrazol-5-yl)-5-(4-(4-(trifluoromethyl)phenyl)-1H-1,2,3-triazol-1-yl)phenyl)-N-(3-aminopropyl)thiophene-2-carboxamide]
hP2Y14R
  fold reduction of affinity relative to 20: 7 fold

## O=C(O)c1cc(O)cc(-n2cc(-c3ccc(C(F)(F)F)cc3)nn2)c1 [compound 37a]
hP2Y14R
  fold less potent than carboxamide 30: 60 fold

## NC(=O)c1ccc(-c2cc(-c3nnn[nH]3)cc(-n3cc(-c4ccc(C(F)(F)F)cc4)nn3)c2)cc1 [compound 36b, 3'-(1H-Tetrazol-5-yl)-5'-(4-(4-(trifluoromethyl)phenyl)-1H-1,2,3-triazol-1-yl)-[1,1'-biphenyl]-4-carboxamide]
hP2Y14R
  fold less potent than carboxamide 30: 9 fold

## CCN(CC)CC.NC(=O)c1ccc(-c2cc(C(=O)O)cc(-n3cc(-c4ccc(C(F)(F)F)cc4)nn3)c2)cc1 [compound 30, 4'-Carbamoyl-5-(4-(4-(trifluoromethyl)phenyl)-lH-l,2,3-triazol-l-yl)-[l,l'-biphenyl]-3-carboxylic acid]
Plasma stability
  remaining in plasma: 94 – 100 % remaining
[1]
  Off-target interactions in the comprehensive PDSP screen: did not bind appreciably to any other sites
CACO-2 cell
  Papp, apical to basal: 0.0 X 10^−6 cm/sec
[2]
  remaining in simulated gastric fluid: 100 % remaining
  remaining in simulated intestinal fluid: 100 % remaining
[3]
  oral bioavailability: lack of bioavailability

## O=C(O)c1cc(O)c2ccc(-c3ccc(C(F)(F)F)cc3)cc2c1 [37d]
[1]
  Off-target interactions in the comprehensive PDSP screen: bound only to NET

## O=C(O)c1cc(-c2ccc(S(=O)(=O)NCCCCO)s2)cc(-n2cc(-c3ccc(C(F)(F)F)cc3)nn2)c1 [compound 10, 3-(5-(N-(4-Hydroxybutyl)sulfamoyl)thiophen-2-yl)-5-(4-(4-(trifluoromethyl)phenyl)-1H-1,2,3-triazol-1-yl)benzoic acid]
hP2Y14R
  fold less potent than primary aminobutyl congener 9: 4 fold

## CC(C)(C)OC(=O)NCCCCCCn1cc(CCCCN2CCC(c3ccc(-c4cc(C(=O)O)cc5cc(-c6ccc(C(F)(F)F)cc6)ccc45)cc3)CC2)nn1 [compound 3c, 4-(4-(1-(4-(1-(6-((tert-Butoxycarbonyl)amino)hexyl)-1H-1,2,3-triazol-4-yl)butyl)piperidm-4-yl)phenyl)-7-(4-(trifluoromethyl)phenyl)-2-naphthoic acid]
H3
  Ki: 2770 nM
5HT2B
  Ki: 2780 nM

## CC(C)(C)NC(=O)c1ccc(-c2cc(-c3nnn[nH]3)cc(-n3cc(-c4ccc(C(F)(F)F)cc4)nn3)c2)cc1 [compound 36c, N-(terf-Butyl)-3'-(1H-tetrazol-5-yl)-5'-(4-(4-(trifluoromethyl)phenyl)-1H-1,2,3-triazol-1-yl)-[1,1'-biphenyl]-4-carboxamide]
hP2Y14R; [4]
  fold reduction of affinity relative to 34: 3 fold

## NCCCNS(=O)(=O)c1ccc(-c2cc(C(=O)O)cc(-n3cc(-c4ccc(C(F)(F)F)cc4)nn3)c2)s1 [compound 7, 3-(5-(N-(3-Ammopropyl)sulfamoyl)thiophen-2-yl)-5-(4-(4-(trifluoromethyl)phenyl)-1H-1,2,3-triazol-1-yl)benzoic acid]
hP2Y14R
  fold more potent than its Boc derivative 6: 12 fold

## NCCCCNS(=O)(=O)c1ccc(-c2cc(C(=O)O)cc(-n3cc(-c4ccc(C(F)(F)F)cc4)nn3)c2)s1 [compound 9, 3-(5-(N-(4-Ammobutyl)sulfamoyl)thiophen-2-yl)-5-(4-(4-(trifluoromethyl)phenyl)-1H-1,2,3-triazol-1-yl)benzoic acid]
hP2Y14R
  fold less potent than 7 in P2Y14R binding: 3 fold

## NCCCCCCn1cc(CCCCN2CCC(c3ccc(-c4cc(C(=O)O)cc5cc(-c6ccc(C(F)(F)F)cc6)ccc45)cc3)CC2)nn1 [compound 3d, 4-(4-(1-(4-(1-(6-Ammohexyl)-1H-1,2,3-triazol-4-yl)butyl)piperidm-4-yl)phenyl)-7-(4-(trifluoromethyl)phenyl)-2-naphthoic acid]
[1]
  Off-target interactions in the comprehensive PDSP screen: displayed extensive off-target interactions with biogenic amine receptors
